Data: ChEMBL document CHEMBL4251622, “Design, synthesis, and biological evaluation of polo-like kinase 1/eukaryotic elongation factor 2 kinase (PLK1/EEF2K) dual inhibitors for regulating breast cancer cells apoptosis and autophagy” (Eur J Med Chem, 2018)
Activity calls are given as the source filed them. The rule behind the calls is not given here.

Legend:
BT-483 [1] = assay: Effect on Fas protein expression in human BT-483 cells at 5 to 10 uM by Western blot analysis; assay type: functional, cell-based
[2] = biological target: Phosphatidylinositol 4-phosphate 3-kinase C2 domain-containing subunit beta (Homo sapiens) (UniProt O00750); assay: Inhibition of wild-type human partial length PIK3C2B (M1 to L1634 residues) expressed in mammalian expression system assessed as residual activity at 1 uM by Kinomescan method relative to control
[3] = biological target: RAF proto-oncogene serine/threonine-protein kinase (Homo sapiens) (UniProt P04049); assay: Inhibition of wild-type human partial length RAF1 (I330 to T640 residues) expressed in bacterial expression system assessed as residual activity at 1 uM by Kinomescan method relative to control
Sequence of RAF proto-oncogene serine/threonine-protein kinase (Homo sapiens) (P04049 whole entry, the tested form may be a part): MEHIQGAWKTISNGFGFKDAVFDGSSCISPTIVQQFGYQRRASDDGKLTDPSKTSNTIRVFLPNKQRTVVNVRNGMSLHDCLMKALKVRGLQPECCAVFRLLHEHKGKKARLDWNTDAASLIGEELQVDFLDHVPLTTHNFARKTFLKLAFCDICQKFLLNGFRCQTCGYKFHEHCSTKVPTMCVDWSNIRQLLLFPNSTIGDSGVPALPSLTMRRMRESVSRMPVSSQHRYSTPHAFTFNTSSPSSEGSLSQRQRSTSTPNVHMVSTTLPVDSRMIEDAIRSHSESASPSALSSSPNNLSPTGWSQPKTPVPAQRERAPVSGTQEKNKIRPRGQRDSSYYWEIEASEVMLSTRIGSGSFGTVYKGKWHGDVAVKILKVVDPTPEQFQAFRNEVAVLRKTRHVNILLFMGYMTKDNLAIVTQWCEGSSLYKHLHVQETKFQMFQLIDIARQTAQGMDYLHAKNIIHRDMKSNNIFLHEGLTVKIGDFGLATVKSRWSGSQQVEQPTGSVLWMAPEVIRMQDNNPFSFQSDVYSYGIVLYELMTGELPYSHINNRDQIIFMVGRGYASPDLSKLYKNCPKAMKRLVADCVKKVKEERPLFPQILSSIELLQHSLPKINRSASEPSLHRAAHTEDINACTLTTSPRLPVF

[4] = biological target: Aurora kinase A (Homo sapiens) (UniProt O14965); assay: Inhibition of wild-type human partial length AURKA (E122 to K401 residues) expressed in mammalian expression system assessed as residual activity at 1 uM by Kinomescan method relative to control
Sequence of Aurora kinase A (Homo sapiens) (O14965 whole entry, the tested form may be a part): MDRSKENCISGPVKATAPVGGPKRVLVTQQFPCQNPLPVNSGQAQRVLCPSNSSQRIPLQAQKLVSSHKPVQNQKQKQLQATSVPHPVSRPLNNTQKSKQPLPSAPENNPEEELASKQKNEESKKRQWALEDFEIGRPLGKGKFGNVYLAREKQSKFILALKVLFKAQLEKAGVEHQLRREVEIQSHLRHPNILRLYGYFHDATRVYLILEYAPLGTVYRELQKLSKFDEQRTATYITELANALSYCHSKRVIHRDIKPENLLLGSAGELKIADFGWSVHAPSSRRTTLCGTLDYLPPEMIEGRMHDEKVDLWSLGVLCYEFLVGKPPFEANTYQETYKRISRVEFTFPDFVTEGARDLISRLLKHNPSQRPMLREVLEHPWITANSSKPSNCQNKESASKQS

[5] = biological target: Cyclin-dependent kinase 19 (Homo sapiens) (UniProt Q9BWU1); assay: Inhibition of wild-type human partial length CDK11 (M1 to N360 residues) expressed in bacterial expression system assessed as residual activity at 1 uM by Kinomescan method relative to control
Sequence of Cyclin-dependent kinase 19 (Homo sapiens) (Q9BWU1 whole entry, the tested form may be a part): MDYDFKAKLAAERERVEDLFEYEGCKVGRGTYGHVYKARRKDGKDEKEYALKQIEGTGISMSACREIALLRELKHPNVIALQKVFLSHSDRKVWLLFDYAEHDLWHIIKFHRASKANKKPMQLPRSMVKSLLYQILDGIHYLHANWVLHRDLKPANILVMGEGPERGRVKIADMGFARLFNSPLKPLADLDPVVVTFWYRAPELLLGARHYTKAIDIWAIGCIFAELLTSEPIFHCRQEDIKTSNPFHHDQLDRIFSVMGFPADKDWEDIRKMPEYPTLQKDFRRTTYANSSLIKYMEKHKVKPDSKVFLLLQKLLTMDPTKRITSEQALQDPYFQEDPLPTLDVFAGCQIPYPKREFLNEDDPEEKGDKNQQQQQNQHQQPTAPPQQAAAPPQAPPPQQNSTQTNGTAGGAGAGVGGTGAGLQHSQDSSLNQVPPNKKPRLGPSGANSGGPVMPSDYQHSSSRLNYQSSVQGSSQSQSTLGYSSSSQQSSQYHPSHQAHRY

[6] = biological target: NUAK family SNF1-like kinase 2 (Homo sapiens) (UniProt Q9H093); assay: Inhibition of wild-type human partial length SNARK (P22 to A333 residues) expressed in mammalian expression system assessed as residual activity at 1 uM by Kinomescan method relative to control
[7] = biological target: Mitogen-activated protein kinase 3 (Homo sapiens) (UniProt P27361); assay: Inhibition of wild-type human full length ERK1 (M1 to P379 residues) expressed in bacterial expression system assessed as residual activity at 1 uM by Kinomescan method relative to control
Sequence of Mitogen-activated protein kinase 3 (Homo sapiens) (P27361 whole entry, the tested form may be a part): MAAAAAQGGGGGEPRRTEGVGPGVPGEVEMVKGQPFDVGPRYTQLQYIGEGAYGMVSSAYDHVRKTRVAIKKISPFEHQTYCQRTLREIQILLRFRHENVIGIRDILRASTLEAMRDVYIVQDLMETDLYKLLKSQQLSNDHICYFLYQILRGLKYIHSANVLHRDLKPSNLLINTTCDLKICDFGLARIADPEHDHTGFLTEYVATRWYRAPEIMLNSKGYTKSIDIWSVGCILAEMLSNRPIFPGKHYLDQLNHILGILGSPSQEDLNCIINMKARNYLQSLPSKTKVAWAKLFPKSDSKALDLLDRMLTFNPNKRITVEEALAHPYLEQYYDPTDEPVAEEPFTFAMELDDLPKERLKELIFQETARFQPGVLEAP

[8] = biological target: Cyclin-dependent kinase 16 (Homo sapiens) (UniProt Q00536); assay: Inhibition of wild-type human partial length PCTK1 (G160 to A474 residues) expressed in mammalian expression system assessed as residual activity at 1 uM by Kinomescan method relative to control
Sequence of Cyclin-dependent kinase 16 (Homo sapiens) (Q00536 whole entry, the tested form may be a part): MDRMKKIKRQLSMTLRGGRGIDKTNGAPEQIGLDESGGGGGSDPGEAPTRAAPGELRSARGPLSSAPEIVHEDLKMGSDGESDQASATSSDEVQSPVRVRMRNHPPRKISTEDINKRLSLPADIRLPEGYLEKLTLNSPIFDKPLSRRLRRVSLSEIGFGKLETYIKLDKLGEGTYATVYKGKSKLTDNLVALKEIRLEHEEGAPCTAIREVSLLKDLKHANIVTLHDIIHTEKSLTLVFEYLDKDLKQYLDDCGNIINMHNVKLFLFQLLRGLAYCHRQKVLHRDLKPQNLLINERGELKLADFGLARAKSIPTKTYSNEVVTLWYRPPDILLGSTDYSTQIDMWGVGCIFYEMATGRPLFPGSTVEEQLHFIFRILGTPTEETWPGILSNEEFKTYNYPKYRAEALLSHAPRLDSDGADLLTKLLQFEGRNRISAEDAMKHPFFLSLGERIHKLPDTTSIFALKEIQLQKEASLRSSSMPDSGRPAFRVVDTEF

BT-483 [9] = assay: Upregulation of cleaved caspase-3 protein expression in human BT-483 cells at 5 to 10 uM by Western blot analysis; assay type: functional, cell-based
BT-483 [10] = assay: Effect on total PLK1 protein expression in human BT-483 cells at 5 to 10 uM by Western blot analysis; assay type: ADME, cell-based; conditions: bt-483, 10 µM
[11] = biological target: Serine/threonine-protein kinase pim-3 (Homo sapiens) (UniProt Q86V86); assay: Inhibition of wild-type human partial length PIM3 (G16 to A317 residues) expressed in bacterial expression system assessed as residual activity at 1 uM by Kinomescan method relative to control
[12] = biological target: Ribosomal protein S6 kinase alpha-1 (Homo sapiens) (UniProt Q15418); assay: Inhibition of wild-type human partial length N-terminal RSK1 Kinase domain 1 (M1 to E388 residues) expressed in bacterial expression system assessed as residual activity at 1 uM by Kinomescan method relative to control
[13] = biological target: Mitogen-activated protein kinase kinase kinase 7 (Homo sapiens) (UniProt O43318); assay: Inhibition of wild-type human partial length TAK1 (M1 to Q303 residues) expressed in mammalian expression system assessed as residual activity at 1 uM by Kinomescan method relative to control
[14] = biological target: Mitogen-activated protein kinase 1 (Homo sapiens) (UniProt P28482); assay: Inhibition of wild-type human full length ERK2 (M1 to S360 residues) expressed in bacterial expression system assessed as residual activity at 1 uM by Kinomescan method relative to control
Sequence of Mitogen-activated protein kinase 1 (Homo sapiens) (P28482 whole entry, the tested form may be a part): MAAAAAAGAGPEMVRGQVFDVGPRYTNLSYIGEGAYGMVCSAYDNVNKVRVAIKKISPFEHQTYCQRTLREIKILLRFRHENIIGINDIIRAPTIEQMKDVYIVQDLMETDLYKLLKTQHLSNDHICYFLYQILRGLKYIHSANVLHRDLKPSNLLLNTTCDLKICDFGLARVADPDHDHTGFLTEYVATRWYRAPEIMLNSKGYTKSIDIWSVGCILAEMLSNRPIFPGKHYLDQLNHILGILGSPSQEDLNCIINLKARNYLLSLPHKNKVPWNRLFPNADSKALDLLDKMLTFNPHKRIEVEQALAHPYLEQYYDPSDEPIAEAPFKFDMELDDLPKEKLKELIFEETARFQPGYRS

[15] = biological target: 3-phosphoinositide-dependent protein kinase 1 (Homo sapiens) (UniProt O15530); assay: Inhibition of wild-type human full length PDPK1 (M1 to Q556 residues) expressed in bacterial expression system assessed as residual activity at 1 uM by Kinomescan method relative to control
Sequence of 3-phosphoinositide-dependent protein kinase 1 (Homo sapiens) (O15530 whole entry, the tested form may be a part): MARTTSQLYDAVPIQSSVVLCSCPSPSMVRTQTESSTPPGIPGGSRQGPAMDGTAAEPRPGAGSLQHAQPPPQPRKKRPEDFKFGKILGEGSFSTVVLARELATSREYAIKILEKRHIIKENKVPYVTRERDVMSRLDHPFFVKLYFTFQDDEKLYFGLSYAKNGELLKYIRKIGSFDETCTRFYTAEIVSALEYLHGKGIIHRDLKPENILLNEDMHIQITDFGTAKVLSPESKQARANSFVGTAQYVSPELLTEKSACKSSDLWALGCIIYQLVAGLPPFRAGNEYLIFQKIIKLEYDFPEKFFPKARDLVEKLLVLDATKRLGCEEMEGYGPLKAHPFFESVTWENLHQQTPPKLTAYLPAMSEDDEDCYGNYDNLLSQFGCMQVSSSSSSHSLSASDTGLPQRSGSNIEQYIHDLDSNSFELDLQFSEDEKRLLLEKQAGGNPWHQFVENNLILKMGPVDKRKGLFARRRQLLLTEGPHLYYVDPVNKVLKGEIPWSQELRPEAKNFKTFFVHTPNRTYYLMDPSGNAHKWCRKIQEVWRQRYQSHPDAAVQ

[16] = biological target: T1, Eukaryotic elongation factor 2 kinase (Homo sapiens) (UniProt O00418); assay: Inhibition of EEF2K-meidated EEF2 phosphorylation in human BT-483 cells at 5 to 10 uM by Western blot analysis; assay type: cell-based
T1 sequence (whole entry): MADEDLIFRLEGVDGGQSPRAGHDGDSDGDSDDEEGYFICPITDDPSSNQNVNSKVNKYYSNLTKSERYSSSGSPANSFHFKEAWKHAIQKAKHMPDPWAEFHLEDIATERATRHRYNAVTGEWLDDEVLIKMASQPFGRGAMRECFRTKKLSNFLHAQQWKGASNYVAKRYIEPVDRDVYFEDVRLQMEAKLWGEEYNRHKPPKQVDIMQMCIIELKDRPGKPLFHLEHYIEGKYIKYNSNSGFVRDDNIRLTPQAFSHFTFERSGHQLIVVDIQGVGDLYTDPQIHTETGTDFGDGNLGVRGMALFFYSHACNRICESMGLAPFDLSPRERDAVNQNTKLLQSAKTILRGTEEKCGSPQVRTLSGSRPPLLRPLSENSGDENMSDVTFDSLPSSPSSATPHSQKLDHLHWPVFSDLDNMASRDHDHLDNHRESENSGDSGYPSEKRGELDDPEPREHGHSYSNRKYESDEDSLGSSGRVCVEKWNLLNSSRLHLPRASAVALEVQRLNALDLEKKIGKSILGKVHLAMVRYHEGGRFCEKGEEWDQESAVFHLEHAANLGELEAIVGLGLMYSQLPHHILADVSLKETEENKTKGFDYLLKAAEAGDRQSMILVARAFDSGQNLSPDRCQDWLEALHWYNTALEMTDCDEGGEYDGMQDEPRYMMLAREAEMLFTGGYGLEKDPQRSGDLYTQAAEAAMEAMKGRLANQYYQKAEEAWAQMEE

[17] = biological target: Proto-oncogene tyrosine-protein kinase Src (Homo sapiens) (UniProt P12931); assay: Inhibition of wild-type human partial length SRC (L240 to L536 residues) expressed in bacterial expression system assessed as residual activity at 1 uM by Kinomescan method relative to control
Sequence of Proto-oncogene tyrosine-protein kinase Src (Homo sapiens) (P12931 2-536 limits assumed): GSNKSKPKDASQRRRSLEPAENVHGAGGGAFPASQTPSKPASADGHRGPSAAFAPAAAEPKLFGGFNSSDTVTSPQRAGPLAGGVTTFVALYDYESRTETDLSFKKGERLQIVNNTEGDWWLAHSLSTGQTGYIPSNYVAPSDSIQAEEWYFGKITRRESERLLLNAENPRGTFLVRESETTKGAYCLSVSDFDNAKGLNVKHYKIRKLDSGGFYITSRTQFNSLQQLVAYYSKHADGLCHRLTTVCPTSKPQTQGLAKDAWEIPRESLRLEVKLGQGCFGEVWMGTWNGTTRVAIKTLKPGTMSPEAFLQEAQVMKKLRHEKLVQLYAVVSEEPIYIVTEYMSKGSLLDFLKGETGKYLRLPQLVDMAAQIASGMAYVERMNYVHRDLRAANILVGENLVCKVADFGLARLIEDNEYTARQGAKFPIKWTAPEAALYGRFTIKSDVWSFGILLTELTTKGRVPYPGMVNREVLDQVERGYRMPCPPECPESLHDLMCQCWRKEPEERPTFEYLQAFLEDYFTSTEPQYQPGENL

[18] = biological target: Rho-associated protein kinase 1 (Homo sapiens) (UniProt Q13464); assay: Inhibition of wild-type human partial length ROCK1 (M1 to R415 residues) expressed in mammalian expression system assessed as residual activity at 1 uM by Kinomescan method relative to control
[19] = biological target: Serine/threonine-protein kinase PLK1 (Homo sapiens, UniProt P53350); assay: Inhibition of wild-type human partial length PLK1 (A33 to F325 residues) expressed in mammalian expression system assessed as residual activity at 1 uM by Kinomescan method relative to control
[20] = biological target: Fibroblast growth factor receptor 4 (Homo sapiens) (UniProt P22455); assay: Inhibition of wild-type human partial length FGFR4 (G402 to E713 residues) expressed in bacterial expression system assessed as residual activity at 1 uM by Kinomescan method relative to control
Sequence of Fibroblast growth factor receptor 4 (Homo sapiens) (P22455 22-802 limits assumed): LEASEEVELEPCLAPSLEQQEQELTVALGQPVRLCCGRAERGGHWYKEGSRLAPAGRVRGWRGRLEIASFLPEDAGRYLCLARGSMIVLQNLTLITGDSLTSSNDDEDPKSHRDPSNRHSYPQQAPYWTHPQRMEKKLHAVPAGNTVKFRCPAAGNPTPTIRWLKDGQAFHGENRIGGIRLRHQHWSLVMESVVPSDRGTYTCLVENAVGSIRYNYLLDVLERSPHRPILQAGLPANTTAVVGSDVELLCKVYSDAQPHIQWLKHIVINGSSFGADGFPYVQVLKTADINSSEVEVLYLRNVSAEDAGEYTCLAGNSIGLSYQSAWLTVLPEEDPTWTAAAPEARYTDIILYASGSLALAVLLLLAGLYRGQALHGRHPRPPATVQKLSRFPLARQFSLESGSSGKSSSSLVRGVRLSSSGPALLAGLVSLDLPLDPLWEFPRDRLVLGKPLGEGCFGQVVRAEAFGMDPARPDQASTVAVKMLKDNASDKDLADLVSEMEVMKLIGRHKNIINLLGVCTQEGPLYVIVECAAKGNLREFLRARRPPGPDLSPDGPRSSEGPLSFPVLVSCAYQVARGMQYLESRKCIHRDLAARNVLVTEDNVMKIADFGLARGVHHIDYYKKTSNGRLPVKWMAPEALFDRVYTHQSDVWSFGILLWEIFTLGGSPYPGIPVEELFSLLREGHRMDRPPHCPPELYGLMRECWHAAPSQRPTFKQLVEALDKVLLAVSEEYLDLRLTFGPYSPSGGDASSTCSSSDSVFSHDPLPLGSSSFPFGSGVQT

[21] = biological target: Angiopoietin-1 receptor (Homo sapiens) (UniProt Q02763); assay: Inhibition of wild-type human partial length TIE2 (N804 to T1112 residues) expressed in bacterial expression system assessed as residual activity at 1 uM by Kinomescan method relative to control

Q: With `CCNc1cc(-c2ccc(NC(=O)Nc3cccc(Cl)c3)cc2C(F)(F)F)ccn1` as the compound, how does the Activity (BT-483 [1]) read?
A: Its Activity is “inactive”.

Q: What about the Activity [2] of the same compound?
A: The Activity was 97%.

Q: What about the Activity [3] of the same compound?
A: The Activity was 64%.

Q: And the Activity [4]?
A: The Activity was 100%.

Q: What about the Activity [5] of the same compound?
A: The Activity was 89%.

Q: What about the Activity [6] of the same compound?
A: Its Activity is 69%.

Q: What about the Activity [7] of the same compound?
A: The Activity was 67%.

Q: What about the Activity [8] of the same compound?
A: Its Activity is 66%.

Q: And the Activity (BT-483 [9])?
A: Its Activity is “Active”.

Q: What about the Activity (BT-483 [10]) of the same compound?
A: Its Activity is “Non-Toxic”.

Q: What about the Activity [11] of the same compound?
A: Its Activity is 100%.

Q: What about the Activity [12] of the same compound?
A: The Activity was 64%.

Q: And the Activity [13]?
A: Its Activity is 76%.

Q: And the Activity [14]?
A: Its Activity is 80%.

Q: What about the Activity [15] of the same compound?
A: The Activity was 63%.

Q: And the inhibition [16]?
A: The inhibition was “Active”.

Q: What about the Activity [17] of the same compound?
A: Its Activity is 93%.

Q: What about the Activity [18] of the same compound?
A: The Activity was 70%.

Q: And the Activity [19]?
A: The Activity was 7%.

Q: What about the Activity [20] of the same compound?
A: Its Activity is 95%.

Q: And the Activity [21]?
A: Its Activity is 94%.
